The record followed here is ChEMBL document CHEMBL6083249, “The journey of p38 MAP kinase inhibitors: From bench to bedside in treating inflammatory diseases” (Eur J Med Chem, 2024).

The species entered for data set [1] is Homo sapiens. The data set is described as follows: Inhibition of CK1 (unknown origin) at 1 uM relative to control. The following applies: values are per cent of control.
Data set [2] addresses Serine/threonine-protein kinase Sgk1 (Homo sapiens) (UniProt O00141). The data set is described as follows: Inhibition of SGK1 (unknown origin) at 1 uM by Z'LYTE kinase assay relative to control. The following applies: values are per cent of control.
The target of data set [3] is T1, Protein kinase C alpha type (Homo sapiens, UniProt P17252). The data set is described as follows: Inhibition of PKCalpha (unknown origin) at 1 uM in presence of ATP relative to control. The following applies: values are per cent of control.
Data set [4] concerns the target Ribosomal protein S6 kinase alpha-1 (Homo sapiens) (UniProt Q15418). The data set is described as follows: Inhibition of RSK1 (unknown origin) at 1 uM relative to control. The following applies: values are per cent of control.
In data set [5] the target is MAP kinase-activated protein kinase 5 (Homo sapiens) (UniProt Q8IW41). The data set is described as follows: Inhibition of PRAK (unknown origin) at 1 uM relative to control. The following applies: values are per cent of control.
The target of data set [6] is Dual specificity tyrosine-phosphorylation-regulated kinase 1A (Homo sapiens) (UniProt Q13627). The data set is described as follows: Inhibition of DYRK1A (unknown origin) at 10 uM relative to control. The settings on record: values are per cent of control.
Data set [7] addresses Casein kinase 2 (Homo sapiens) (UniProt P67870+P68400+P19784+Q8NEV1). The data set is described as follows: Inhibition of CK2 (unknown origin) at 1 uM relative to control. It is filed as protein assay. The settings on record: values are per cent of control.
Data set [8] deals with Mitogen-activated protein kinase 1 (Homo sapiens) (UniProt P28482). The experiment in a line: Inhibition of ERK2 (unknown origin) at 1 uM relative to control. The following applies: values are per cent of control.
Data set [9] is filed under the species Homo sapiens. The experiment in a line: Inhibition of PKA (unknown origin) at 1 uM relative to control. The following applies: values are per cent of control.
For data set [10], the target named is Ribosomal protein S6 kinase beta-1 (Homo sapiens) (UniProt P23443). The experiment in a line: Inhibition of S6K1 (unknown origin) at 1 uM relative to control. The settings on record: values are per cent of control.
Sequence of Ribosomal protein S6 kinase beta-1 (Homo sapiens) (P23443 whole entry, looked up): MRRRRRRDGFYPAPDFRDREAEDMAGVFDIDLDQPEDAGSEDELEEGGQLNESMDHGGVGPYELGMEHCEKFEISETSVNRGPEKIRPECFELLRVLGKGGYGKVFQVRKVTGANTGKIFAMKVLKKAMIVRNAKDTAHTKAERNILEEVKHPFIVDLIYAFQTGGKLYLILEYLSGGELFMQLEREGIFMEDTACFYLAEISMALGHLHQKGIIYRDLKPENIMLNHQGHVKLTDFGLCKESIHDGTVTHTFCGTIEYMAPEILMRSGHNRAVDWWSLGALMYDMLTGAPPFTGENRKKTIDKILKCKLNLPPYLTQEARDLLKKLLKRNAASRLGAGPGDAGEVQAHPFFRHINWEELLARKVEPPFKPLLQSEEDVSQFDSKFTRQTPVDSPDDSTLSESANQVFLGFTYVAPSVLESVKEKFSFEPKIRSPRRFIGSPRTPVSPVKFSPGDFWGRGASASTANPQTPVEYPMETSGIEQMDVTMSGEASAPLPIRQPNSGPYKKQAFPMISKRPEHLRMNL
The species named for data set [11] is Homo sapiens. The experiment in a line: Inhibition of CK1 (unknown origin) at 10 uM relative to control. The following applies: values are per cent of control.
Data set [12] has as its target Dual specificity tyrosine-phosphorylation-regulated kinase 1A (Homo sapiens) (UniProt Q13627). The experiment in a line: Inhibition of DYRK1A (unknown origin) at 1 uM relative to control. The following applies: values are per cent of control.
In data set [13] the target is Rho-associated protein kinase 2 (Homo sapiens) (UniProt O75116). The data set is described as follows: Inhibition of ROCK2 (unknown origin) at 1 uM relative to control. The settings on record: values are per cent of control.
Sequence of Rho-associated protein kinase 2 (Homo sapiens) (O75116 whole entry, looked up): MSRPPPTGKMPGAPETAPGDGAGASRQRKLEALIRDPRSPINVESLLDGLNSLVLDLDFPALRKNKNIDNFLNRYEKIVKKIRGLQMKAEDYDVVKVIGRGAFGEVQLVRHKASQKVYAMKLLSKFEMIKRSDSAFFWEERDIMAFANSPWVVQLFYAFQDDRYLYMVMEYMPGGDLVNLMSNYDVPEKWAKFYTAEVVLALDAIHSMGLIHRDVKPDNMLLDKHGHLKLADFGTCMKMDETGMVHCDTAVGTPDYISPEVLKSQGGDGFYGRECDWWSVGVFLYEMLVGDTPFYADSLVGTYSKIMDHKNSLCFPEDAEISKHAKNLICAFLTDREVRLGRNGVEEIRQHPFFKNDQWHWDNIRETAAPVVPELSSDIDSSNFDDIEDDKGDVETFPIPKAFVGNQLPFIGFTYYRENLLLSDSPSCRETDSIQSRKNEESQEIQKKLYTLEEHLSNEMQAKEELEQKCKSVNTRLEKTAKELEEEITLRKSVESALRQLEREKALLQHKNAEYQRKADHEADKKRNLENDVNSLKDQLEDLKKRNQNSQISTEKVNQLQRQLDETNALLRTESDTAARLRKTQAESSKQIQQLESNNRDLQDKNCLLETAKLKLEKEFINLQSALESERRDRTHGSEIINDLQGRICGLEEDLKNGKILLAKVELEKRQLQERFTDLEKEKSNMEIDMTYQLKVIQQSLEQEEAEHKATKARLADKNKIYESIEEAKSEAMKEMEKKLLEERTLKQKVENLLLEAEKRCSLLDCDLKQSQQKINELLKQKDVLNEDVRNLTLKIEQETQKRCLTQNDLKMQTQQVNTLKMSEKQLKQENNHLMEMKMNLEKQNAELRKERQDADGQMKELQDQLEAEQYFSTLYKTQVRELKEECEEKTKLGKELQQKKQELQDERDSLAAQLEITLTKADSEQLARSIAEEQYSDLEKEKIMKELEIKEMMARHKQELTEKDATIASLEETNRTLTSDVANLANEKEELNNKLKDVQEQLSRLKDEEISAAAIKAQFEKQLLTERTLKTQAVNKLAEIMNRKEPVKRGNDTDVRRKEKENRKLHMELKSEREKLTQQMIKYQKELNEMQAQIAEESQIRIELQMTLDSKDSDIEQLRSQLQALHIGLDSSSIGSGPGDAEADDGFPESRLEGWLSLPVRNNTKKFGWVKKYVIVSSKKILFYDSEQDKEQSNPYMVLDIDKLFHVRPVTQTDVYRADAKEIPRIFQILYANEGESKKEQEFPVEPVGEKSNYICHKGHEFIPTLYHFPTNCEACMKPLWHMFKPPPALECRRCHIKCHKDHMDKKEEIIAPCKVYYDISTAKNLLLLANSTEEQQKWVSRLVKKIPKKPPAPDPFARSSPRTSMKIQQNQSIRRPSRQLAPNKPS
Data set [14] concerns the target Dual specificity mitogen-activated protein kinase kinase 1 (Homo sapiens) (UniProt Q02750). The data set is described as follows: Inhibition of MKK1 (unknown origin) at 1 uM relative to control. The settings on record: values are per cent of control.
For data set [15], the target named is Mitogen-activated protein kinase 8 (Homo sapiens) (UniProt P45983). The experiment in a line: Inhibition of JNK1alpha1 (unknown origin) at 1 uM relative to control. The settings on record: values are per cent of control.
Sequence of Mitogen-activated protein kinase 8 (Homo sapiens) (P45983 whole entry): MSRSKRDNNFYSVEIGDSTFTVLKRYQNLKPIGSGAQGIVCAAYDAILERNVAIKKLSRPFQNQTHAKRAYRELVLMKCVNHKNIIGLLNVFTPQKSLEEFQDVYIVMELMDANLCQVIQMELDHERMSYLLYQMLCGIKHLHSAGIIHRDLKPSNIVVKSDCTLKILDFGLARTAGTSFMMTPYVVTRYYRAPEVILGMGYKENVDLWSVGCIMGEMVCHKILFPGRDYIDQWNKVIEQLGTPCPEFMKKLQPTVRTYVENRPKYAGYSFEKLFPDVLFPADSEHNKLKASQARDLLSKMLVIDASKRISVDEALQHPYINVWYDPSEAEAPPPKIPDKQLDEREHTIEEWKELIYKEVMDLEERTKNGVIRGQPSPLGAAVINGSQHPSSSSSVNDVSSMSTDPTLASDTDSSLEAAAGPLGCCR
Data set [16] in a line: Cmax in Wistar rat at 10 mg/kg, po by LC-MS/MS analysis. It counts as ADME, organism-based. The following applies: in vivo.
The nature of data set [17]: Tmax in Wistar rat at 10 mg/kg, po by LC-MS/MS analysis. The settings on record: in vivo. It is filed as ADME, organism-based.
Data set [18] relates to THP-1. The data set is described as follows: Anti-inflammatory activity in human THP-1 cells assessed as inhibition of IL-1beta protein expression incubated for 24 hrs by Western blot analysis. It is filed as functional, cell-based. The following applies: THP-1, 24 h.
Data set [19] in a line: Volume of distribution at steady state in Sprague-Dawley rat at 10 mg/kg, iv measured for 24 hrs by LC-MS/MS analysis. It counts as ADME, organism-based. The following applies: in vivo, read-out: Vdss.
Data set [20] in a line: Clearance in Sprague-Dawley rat at 10 mg/kg, iv by HPLC-MS analysis. It is filed as ADME, organism-based. The following applies: in vivo.
A short description of data set [21]: AUC in Sprague-Dawley rat at 10 mg/kg, po measured for 24 hrs by LC-MS/MS analysis. The settings on record: in vivo. It counts as ADME, organism-based.
Data set [22] is described as follows: Oral bioavailability in Sprague-Dawley rat at 10 mg/kg by LC-MS analysis. It is filed as ADME, organism-based. The settings on record: in vivo.
The test system of another data set is RAW264.7. The data set is described as follows: Anti-inflammatory activity in LPS-induced mouse RAW264.7 cells assessed as inhibition of IL-6 production. It is filed as functional, cell-based.
In data set [23] the test system is THP-1. The data set is described as follows: Antiinflammatory activity against human THP-1 cells assessed as inhibition of LPS-induced TNF-alpha production. It counts as functional, cell-based.
The target of data set [24] is Protein kinase C beta type (Homo sapiens, UniProt P05771). The data set is described as follows: Inhibition of PKCbeta2 (unknown origin).
Sequence of Protein kinase C beta type (P05771 whole entry): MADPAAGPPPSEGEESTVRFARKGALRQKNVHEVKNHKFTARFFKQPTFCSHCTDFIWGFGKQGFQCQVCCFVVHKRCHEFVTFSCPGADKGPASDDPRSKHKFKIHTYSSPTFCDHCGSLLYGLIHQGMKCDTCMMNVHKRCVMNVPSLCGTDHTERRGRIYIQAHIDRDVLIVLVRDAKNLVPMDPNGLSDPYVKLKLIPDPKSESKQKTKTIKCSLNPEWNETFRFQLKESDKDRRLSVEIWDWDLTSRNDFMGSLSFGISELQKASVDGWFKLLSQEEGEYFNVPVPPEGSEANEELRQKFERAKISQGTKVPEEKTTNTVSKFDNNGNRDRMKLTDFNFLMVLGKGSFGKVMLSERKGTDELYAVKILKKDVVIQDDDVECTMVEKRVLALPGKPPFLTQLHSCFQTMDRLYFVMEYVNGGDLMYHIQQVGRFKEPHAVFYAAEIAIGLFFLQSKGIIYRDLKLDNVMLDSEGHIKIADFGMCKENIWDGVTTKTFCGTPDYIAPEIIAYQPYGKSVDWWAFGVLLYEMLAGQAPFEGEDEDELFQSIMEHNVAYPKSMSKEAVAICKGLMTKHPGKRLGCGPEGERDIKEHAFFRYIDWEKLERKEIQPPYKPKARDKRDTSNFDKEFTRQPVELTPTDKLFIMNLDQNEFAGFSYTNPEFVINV
Data set [25] has as its target T1, Protein kinase C alpha type. The data set is described as follows: Inhibition of PKCalpha (unknown origin).
Data set [26] in a line: Half life in Beagle dog at 5 mg/kg, po by LC-MS/MS analysis. It counts as ADME, organism-based, Canis lupus familiaris. The following applies: in vivo.
A short description of data set [27]: Clearance in dog. It counts as ADME, Canis lupus familiaris. The following applies: in vivo.
Data set [28] in a line: Clearance in rat. The following applies: in vivo. It is filed as ADME.

Sequence of Ribosomal protein S6 kinase alpha-1 (Homo sapiens) (Q15418 whole entry): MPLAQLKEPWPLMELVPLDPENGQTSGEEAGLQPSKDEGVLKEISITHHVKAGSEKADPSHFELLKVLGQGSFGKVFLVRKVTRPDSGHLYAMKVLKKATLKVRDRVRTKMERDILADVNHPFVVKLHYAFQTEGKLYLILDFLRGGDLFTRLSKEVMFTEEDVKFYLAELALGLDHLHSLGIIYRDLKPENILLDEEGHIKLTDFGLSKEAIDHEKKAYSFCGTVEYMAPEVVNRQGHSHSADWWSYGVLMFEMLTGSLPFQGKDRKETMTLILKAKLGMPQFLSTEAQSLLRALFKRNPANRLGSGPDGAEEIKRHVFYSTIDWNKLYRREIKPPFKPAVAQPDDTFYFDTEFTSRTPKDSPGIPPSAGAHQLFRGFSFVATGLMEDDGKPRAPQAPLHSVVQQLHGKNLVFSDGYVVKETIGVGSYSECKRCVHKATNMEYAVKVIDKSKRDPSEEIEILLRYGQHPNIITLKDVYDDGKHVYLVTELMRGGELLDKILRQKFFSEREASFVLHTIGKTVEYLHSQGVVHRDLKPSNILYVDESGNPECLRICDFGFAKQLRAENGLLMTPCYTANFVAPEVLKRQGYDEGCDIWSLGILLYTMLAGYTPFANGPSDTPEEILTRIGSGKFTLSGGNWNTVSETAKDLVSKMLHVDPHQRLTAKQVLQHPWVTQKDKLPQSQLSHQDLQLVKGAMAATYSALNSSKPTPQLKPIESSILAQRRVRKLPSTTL
Sequence of Dual specificity mitogen-activated protein kinase kinase 1 (Homo sapiens) (Q02750 whole entry): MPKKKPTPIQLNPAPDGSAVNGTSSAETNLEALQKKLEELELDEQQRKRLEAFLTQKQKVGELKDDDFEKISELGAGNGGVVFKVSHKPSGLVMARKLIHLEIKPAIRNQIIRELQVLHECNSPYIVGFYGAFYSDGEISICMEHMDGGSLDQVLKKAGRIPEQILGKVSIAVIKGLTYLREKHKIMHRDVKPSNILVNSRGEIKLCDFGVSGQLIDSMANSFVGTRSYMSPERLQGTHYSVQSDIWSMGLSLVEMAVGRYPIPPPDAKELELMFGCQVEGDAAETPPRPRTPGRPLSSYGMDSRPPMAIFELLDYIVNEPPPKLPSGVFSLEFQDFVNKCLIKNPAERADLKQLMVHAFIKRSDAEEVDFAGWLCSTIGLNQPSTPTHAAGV

For the compound `Cc1ccc(-n2nc(C(C)(C)C)cc2NC(=O)Nc2ccc(OCCN3CCOCC3)c3ccccc23)cc1`, the residual activity in the data set filed under Homo sapiens [1] came to 87%; in [2], 94%; in data set [3], 80%; in data set [4], 59%; in data set [5], 71%; in data set [6] it was 79%. The residual activity in [7] came out at 85%; in data set [8], 79%; in the data set listed under Homo sapiens [9], 88%; in [10], 119%; in the data set filed under Homo sapiens [11], 84%; in data set [12] it was 82%. For the same compound, the residual activity in data set [13] came to 80%; in data set [14], 71%; in data set [15], 70%.
By Cmax is commonly meant the peak of the concentration-time curve. The Tmax is the time at which the peak concentration occurs. Usually IC50 stands for the concentration at which inhibition is half-maximal. Broadly, the clearance is the volume of plasma or blood freed of the substance per unit of time. The low end stands for inefficient removal, the high end for efficient removal. What is called bioavailability is the share of a dose that reaches the circulation, judged against a reference dose that is usually intravenous. Low values mean poor availability, high ones good availability. As a reminder, the EC50 is the concentration giving half of the maximal effect. In turn, `Cn1c(=O)c(Oc2ccc(F)cc2F)cc2cnc(NC3CCOCC3)nc21` [R-1487] displayed a Cmax in [16] of 650 ng/mL. In data set [17], the Tmax came out at 2 h. The IC50 turned out to be 170 nM in the data set with THP-1 [18] and 800 nM with THP-1 [23]. For the same compound, the Vd in data set [19] amounted to 1.94 L/kg. In [20], this compound gave a clearance of 20.7 mL/min/kg. This compound yielded an AUC in data set [21] of 2.35 µg/h/mL. Also, the bioavailability in data set [22] is 29.3%. For the same compound, the concentration for a half-maximal effect (EC50) with RAW264.7 worked out at 10 nM.
With `C[S+]([O-])c1ccc(-c2nc(-c3ccncc3)c(-c3ccc(F)cc3)[nH]2)cc1` (centres undefined) [SB-203580], the IC50 was above 50000 nM in [24] and above 100000 nM in [25].
What is called half-life is the time in which the quantity being followed falls by half. In the case of `O=C(CO)N1CCC(c2[nH]nc(-c3ccc(Cl)cc3)c2-c2ccncn2)CC1` [SD-0006], the half-life in data set [26] was 4.48 h. The figures for the clearance in data set [27] and in data set [28] were 2.92 mL/min/kg and 4.86 mL/min/kg, respectively.
